The record followed here is ChEMBL document CHEMBL1641533, “A facile, click chemistry-based approach to assembling fluorescent chemosensors for protein tyrosine kinases” (Bioorg Med Chem Lett, 2011).

Active and inactive are the calls of the source. The calls are words filed in the database; no cut-off is given here. Starred links: 1 amine or outer side, 2 acyl side, 3 side chain; linkers in the order of their positions; H or OH if unused. Non-standard residues stand in square brackets, D forms with d. Residues, ends and D or L forms follow the SMILES beside them. X2 = CCN1C(=O)c2cccc3c(-n4cc(C[C@H](N[*:1])C(=O)[*:2])nn4)ccc(c23)C1=O; X1 = O=C([C@H](Cc1cn(-c2ccc3ccc4cccc5ccc2c3c45)nn1)N[*:1])[*:2]; X5 = Cc1cc(=O)[nH]c2cc(-n3cc(C[C@H](N[*:1])C(=O)[*:2])nn3)ccc12; X4 = O=C([C@H](Cc1cn(-c2cc3ccc(O)cc3oc2=O)nn1)N[*:1])[*:2]; X3 = O=C([C@H](Cc1cn(-c2cccc3ccccc23)nn1)N[*:1])[*:2]

Assay [1] deals with Tyrosine-protein kinase Lyn (Homo sapiens) (UniProt P07948). Kind of assay: Binding affinity to Lyn assessed as increase of fluorescence after 60 mins relative to control.
For assay [2] the target is unchanged. The experiment in a line: Induction of Lyn phosphorylation in human K562 CML cells assessed as peptide substrate consumption at 25 uM after 60 mins. The class given is cell-based.
The target is the same in assay [3]. Kind of assay: Binding affinity to Lyn assessed as increase of fluorescence after 60 mins by HPLC analysis.
The target is the same in assay [4]. Kind of assay: Induction of Lyn phosphorylation in human K562 CML cells assessed as peptide substrate consumption at 25 uM after 40 mins. It counts as cell-based.
Assay [5] shares this target. Kind of assay: Induction of Lyn phosphorylation in human K562 CML cells assessed as peptide substrate consumption at 25 uM after 10 mins in presence of Bcr-Abl inhibitor Imatinib. The class given is cell-based.
Assay [6] shares this target. The experiment in a line: Binding affinity to Lyn in human K562 CML cells assessed as increase of fluorescence. It counts as cell-based. Conditions: TDE = time-dependent effect.
Assay [7] shares this target. Kind of assay: Induction of Lyn phosphorylation in human K562 CML cells assessed as peptide substrate consumption at 25 uM after 10 mins. It counts as cell-based.
Assay [8] shares this target. Kind of assay: Induction of Lyn phosphorylation in human K562 CML cells assessed as peptide substrate consumption at 25 uM after 60 mins in presence of Bcr-Abl inhibitor Imatinib. It counts as cell-based.
The target is the same in assay [9]. The experiment in a line: Induction of Lyn phosphorylation in human K562 CML cells assessed as peptide substrate consumption at 25 uM after 20 mins in presence of Bcr-Abl inhibitor Imatinib. The class given is cell-based.
The target is the same in assay [10]. The experiment in a line: Induction of Lyn phosphorylation in human K562 CML cells assessed as peptide substrate consumption at 25 uM after 20 mins. It counts as cell-based.
For assay [11] the target is unchanged. The experiment in a line: Binding affinity to Lyn in human K562 CML cells assessed as increase of fluorescence after 60 mins in presence of SFK inhibitor SU6656. The class given is cell-based.
For assay [12] the target is unchanged. Kind of assay: Induction of Lyn phosphorylation in human K562 CML cells assessed as peptide substrate consumption at 25 uM after 40 mins in presence of Bcr-Abl inhibitor Imatinib. The class given is cell-based.
Assay [13] shares this target. Kind of assay: Binding affinity to Lyn in human K562 CML cells assessed as increase of fluorescence after 60 mins in presence of Bcr-Abl inhibitor Imatinib. It counts as cell-based.

Tyrosine-protein kinase Lyn (Homo sapiens), sequence (P07948 2-512 limits assumed): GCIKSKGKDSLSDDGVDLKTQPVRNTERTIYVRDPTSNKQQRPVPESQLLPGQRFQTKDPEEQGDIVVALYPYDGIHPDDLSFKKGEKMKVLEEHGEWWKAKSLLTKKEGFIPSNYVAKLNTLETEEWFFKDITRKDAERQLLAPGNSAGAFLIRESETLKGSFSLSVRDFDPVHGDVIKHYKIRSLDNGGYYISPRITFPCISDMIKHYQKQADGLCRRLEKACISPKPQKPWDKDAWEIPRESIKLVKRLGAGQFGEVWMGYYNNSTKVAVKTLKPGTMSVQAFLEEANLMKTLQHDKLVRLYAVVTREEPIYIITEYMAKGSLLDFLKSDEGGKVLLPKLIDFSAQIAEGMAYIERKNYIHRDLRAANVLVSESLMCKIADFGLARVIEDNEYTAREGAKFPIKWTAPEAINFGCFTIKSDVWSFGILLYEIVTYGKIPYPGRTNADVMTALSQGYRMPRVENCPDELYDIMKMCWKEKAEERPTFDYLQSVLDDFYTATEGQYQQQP

`CC[C@H](C)[C@H](NC(=O)[C@H](CCC(=O)O)NC(=O)[C@H](CCC(=O)O)NC(=O)[C@H](CCC(=O)O)NC(=O)[C@H](C)N)C(=O)N[C@@H](Cc1ccc(O)cc1)C(=O)NCC(=O)N[C@@H](CCC(=O)O)C(=O)N[C@@H](Cc1cn(Cc2cc(=O)oc3cc(NC(C)=O)ccc23)nn1)C(=O)N[C@@H](CCC(=O)O)C(=O)N[C@@H](C)C(=O)N[C@@H](CCCCN)C(=O)N[C@@H](CCCCN)C(=O)N[C@@H](CCCCN)C(=O)N[C@@H](CCCCN)C(N)=O`: the fold change (FC) in assay [1] was 1.3.
Same read-out and setting: the value for `CC[C@H](C)[C@H](NC(=O)[C@H](CCC(=O)O)NC(=O)[C@H](CCC(=O)O)NC(=O)[C@H](CCC(=O)O)NC(=O)[C@H](C)N)C(=O)N[C@@H](Cc1ccc(O)cc1)C(=O)NCC(=O)N[C@@H](CCC(=O)O)C(=O)N[C@@H](Cc1cn(-c2ccc3c(C)cc(=O)[nH]c3c2)nn1)C(=O)N[C@@H](CCC(=O)O)C(=O)N[C@@H](C)C(=O)N[C@@H](CCCCN)C(=O)N[C@@H](CCCCN)C(=O)N[C@@H](CCCCN)C(=O)N[C@@H](CCCCN)C(N)=O` (H-AEEEIYGE[X5]EAKKKK-NH2) was 0; that for `CC[C@H](C)[C@H](NC(=O)[C@H](CCC(=O)O)NC(=O)[C@H](CCC(=O)O)NC(=O)[C@H](CCC(=O)O)NC(=O)[C@H](C)N)C(=O)N[C@@H](Cc1ccc(O)cc1)C(=O)NCC(=O)N[C@@H](CCC(=O)O)C(=O)N[C@@H](Cc1cn(-c2cccc3ccccc23)nn1)C(=O)N[C@@H](CCC(=O)O)C(=O)N[C@@H](C)C(=O)N[C@@H](CCCCN)C(=O)N[C@@H](CCCCN)C(=O)N[C@@H](CCCCN)C(=O)N[C@@H](CCCCN)C(N)=O` (H-AEEEIYGE[X3]EAKKKK-NH2) was 0.
Consider `CC[C@H](C)[C@H](NC(=O)[C@H](CCC(=O)O)NC(=O)[C@H](CCC(=O)O)NC(=O)[C@H](CCC(=O)O)NC(=O)[C@H](C)N)C(=O)N[C@@H](Cc1ccc(O)cc1)C(=O)NCC(=O)N[C@@H](CCC(=O)O)C(=O)N[C@@H](Cc1cn(-c2ccc3c4c(cccc24)C(=O)N(CC)C3=O)nn1)C(=O)N[C@@H](CCC(=O)O)C(=O)N[C@@H](C)C(=O)N[C@@H](CCCCN)C(=O)N[C@@H](CCCCN)C(=O)N[C@@H](CCCCN)C(=O)N[C@@H](CCCCN)C(N)=O` (H-AEEEIYGE[X2]EAKKKK-NH2), for which the fold change (FC) in assay [1] amounted to 2.5.
Regarding `CC[C@H](C)[C@H](NC(=O)[C@H](CCC(=O)O)NC(=O)[C@H](CCC(=O)O)NC(=O)[C@H](CCC(=O)O)NC(=O)[C@H](C)N)C(=O)N[C@@H](Cc1ccc(O)cc1)C(=O)NCC(=O)N[C@@H](CCC(=O)O)C(=O)N[C@@H](Cc1cn(Cc2cc(=O)oc3cc(N)ccc23)nn1)C(=O)N[C@@H](CCC(=O)O)C(=O)N[C@@H](C)C(=O)N[C@@H](CCCCN)C(=O)N[C@@H](CCCCN)C(=O)N[C@@H](CCCCN)C(=O)N[C@@H](CCCCN)C(N)=O`, in [1], the fold change (FC) stood at 1.3.
On the same count and under the same terms, the value for `CC[C@H](C)[C@H](NC(=O)[C@H](CCC(=O)O)NC(=O)[C@H](CCC(=O)O)NC(=O)[C@H](CCC(=O)O)NC(=O)[C@H](C)N)C(=O)N[C@@H](Cc1ccc(O)cc1)C(=O)NCC(=O)N[C@@H](CCC(=O)O)C(=O)N[C@@H](Cc1cn(-c2cc3ccc(O)cc3oc2=O)nn1)C(=O)N[C@@H](CCC(=O)O)C(=O)N[C@@H](C)C(=O)N[C@@H](CCCCN)C(=O)N[C@@H](CCCCN)C(=O)N[C@@H](CCCCN)C(=O)N[C@@H](CCCCN)C(N)=O` (H-AEEEIYGE[X4]EAKKKK-NH2) was 1.1; that for `CC[C@H](C)[C@H](NC(=O)[C@H](CCC(=O)O)NC(=O)[C@H](CCC(=O)O)NC(=O)[C@H](CCC(=O)O)NC(=O)[C@H](C)N)C(=O)N[C@@H](Cc1ccc(O)cc1)C(=O)NCC(=O)N[C@@H](CCC(=O)O)C(=O)N[C@@H](Cc1cn(CCNS(=O)(=O)c2cccc3c(N(C)C)cccc23)nn1)C(=O)N[C@@H](CCC(=O)O)C(=O)N[C@@H](C)C(=O)N[C@@H](CCCCN)C(=O)N[C@@H](CCCCN)C(=O)N[C@@H](CCCCN)C(=O)N[C@@H](CCCCN)C(N)=O` was 0.
As for `CC[C@H](C)[C@H](NC(=O)[C@H](CCC(=O)O)NC(=O)[C@H](CCC(=O)O)NC(=O)[C@H](CCC(=O)O)NC(=O)[C@H](C)N)C(=O)N[C@@H](Cc1ccc(O)cc1)C(=O)NCC(=O)N[C@@H](CCC(=O)O)C(=O)N[C@@H](Cc1cn(-c2ccc3ccc4cccc5ccc2c3c45)nn1)C(=O)N[C@@H](CCC(=O)O)C(=O)N[C@@H](C)C(=O)N[C@@H](CCCCN)C(=O)N[C@@H](CCCCN)C(=O)N[C@@H](CCCCN)C(=O)N[C@@H](CCCCN)C(N)=O` (H-AEEEIYGE[X1]EAKKKK-NH2), the Activity in assay [2] is 4.24%; in [4], 2.01%; in [5], 0.18%; in [6], “tde”; in assay [7], 1.35%; in assay [8], 0.41%. Moreover, the Activity in assay [9] was 0.25%; in assay [10], 1.67%; in assay [12], 0.33%. Moreover, the fold change (FC) in assay [3] and in assay [1] was 4 in each case. In addition, the outcome in assay [11] and in assay [13] was inactive.
